Data as given in patent US20120294869A1, “Methods for Treating Fatty Liver Disease” (Nevada Cancer Institute, priority 2011, published 2012).
Like-named read-outs stand apart in the source and are kept apart here. Blank lines part the entries; values can stand above or below the molecule they belong to.

Assays:
[1] = Fate of an i.p. tracer dose of [3H]Urd in mouse plasma; format: in vivo; settings: for half-life: plasma, ip
From the text: The UPP-1-KO mouse was created by replacing a 2.5 kb fragment of the UPP-1 gene (including exons 4 and 5) with a 1.6 kb neomycin resistance expression cassette. See, e.g., Cao, D. et al. (2002) Cancer Res. 62: 2313-2317 and Cao, D. et al. (2005) J. Biol. Chem. 280: 21169-21175. […] The absence of UPP-1 phosphorolytic (UPase) activity was confirmed by determining the fate of a tracer dose (25 μCi/mouse) of [^3H]Urd injected intraperitoneally (i.p.) in mice. A very rapid disappearance of [^3H]Urd from the plasma of wild-type (WT) mice was observed, with a t1/2, of approximately […] due to active phosphorolysis.
Enzymatic activity in liver was 10.7±0.3 nmol/hr/mg for the WT animals compared to 252±68 nmol/hr/mg for the transgenic. In WT mice, a tracer dose of [^3H]Urd (25 μCi, i.p.) was rapidly degraded with a t1/2, of approximately 4 minutes. […] Table 1 summarizes the concentrations of URD in WT C57BL/6 mice, the UPP-1-KO and the UPP-1-TG models.

UPP-1-TG mice [2] = assay: CARS imaging of liver lipid accumulation after dietary Urd supplementation; format: in vivo, mouse; settings: Urd 2 to 5% in dry diet
From the text: Images are presented as 3-D stacks. (B) is a bar graph representing quantitative analysis of liver lipid in 18 probed volumes with xyz dimensions of 125×125×25 μm. Three mice per group were used for analysis. Lipid level is defined as the square root of the CARS signal arising from the lipid droplets. Lipid level is normalized to 1 for WT mice. Error bars represent the standard deviations. (C) is a graph depicting Raman spectroscopy analysis of lipid droplet composition.
Using CARS microscopy to image 100-micron thick sections of explanted liver tissues, the effect of the disruption of URD homeostasis on liver lipids was evaluated. As reprinted in FIG. 1, a dramatic difference in liver lipid accumulation among WT, UPP-1-KO and UPP-1-TG mice was observed. […] To confirm the results obtained through CARS microscopy, Oil Red O staining (specific for neutral triglycerides and lipids) of the frozen liver sections was conducted, which yielded similar results to the CARS technology (data not shown).

UPP-1-TG mice [3] = assay: Raman spectroscopy of lipid-chain unsaturation in liver lipid droplets; format: in vivo, mouse; settings: UPP-1-TG mice fed with Urd
From the text: Red and blue arrows point to 1445 cm^−1 and 1660 cm^−1 peaks, respectively. (B) is a graph showing that 11660/11445 is linearly dependent on lipid-chain unsaturation. (C) is a bar graph depicting lipid-chain unsaturation of liver lipid droplets as a function of WT and UPP-1-TG mice. Error bars represent standard deviation across 18 lipid droplets measured.
In control UPP-1-TG mice, the value of 11660/11445, which is a reliable measure of lipid-chain unsaturation (FIG. 4A-B; Rinia, H. A., et al (2008) Biophysical Journal 95: 4908-4914, 2008), was 1.05 (FIG. 4C). In UPP-1-TG mice fed with Urd, the 11660/11445 value of liver lipid droplets was 0.3. The 11660/11445 value of liver lipid droplets was 0.8 for control WT mice.

[4] = tested on: Primary hepatocytes from UPP-1-TG mice; assay: Intracellular lipid droplet accumulation in primary hepatocytes (CARS); format: cell-based, mouse; settings: UPP-1-TG primary hepatocytes, 24 hour incubation, 100 μM Urd
From the text: (B) is a bar graph representing quantitative analysis of intracellular lipid level in 15 isolated hepatocytes from each group. Intracellular lipid level is defined as the square root of the CARS signal arising from the intracellular lipid droplets of each hepatocyte. Intracellular lipid level is normalized to 1 for WT hepatocytes.
To further confirm our results and to provide a more practical in vitro method, short term cultures of primary liver hepatocytes were generated. WT and UPP-1-TG mouse hepatocytes were isolated using a two-step collagenase perfusion technique initially described by Seglen (Seglen, P.O. (1976) Methods Cell Biol. 13: 29-83). Viability ranged from 80-90% as determined by trypan blue exclusion. Hepatocyte enrichment reached approximately 85-90%. Cells were monitored for albumin expression through 72 hours, with no discernible differences when compared to the initial isolation.

UPP-2 = settings: mouse liver tissue; cited from earlier work

- half-life ([1]; C57BL/6, mouse, 25 μCi/mouse, wild-type (WT) mice, tracer dose 25 μCi/mouse i.p., read-out: [3H]Urd plasma t1/2): ~4 min
- [3H]Urd detectability after administration ([1]; UPP-1-TG (ubiquitous UPP-1 transgenic), mouse, in vivo, 15 minutes): no [^3H]Urd detectable
- half-life ([1]; UPP-1-TG (ubiquitous UPP-1 transgenic), mouse, 25 μCi, UPP-1-TG mice, tracer dose 25 μCi i.p., read-out: [3H]Urd t1/2): < 0.5 min
- half-life ([1]; mouse, 25 μCi/mouse, UPP-1-KO mice, tracer dose 25 μCi/mouse i.p., read-out: [3H]Urd plasma t1/2): 15 to 18 min
SMILES: O=c1ccn([C@@H]2O[C@H](CO)[C@@H](O)[C@H]2O)c(=O)[nH]1 [[^3H]Urd]

SMILES: O=c1ccn([C@@H]2O[C@H](CO)[C@@H](O)[C@H]2O)c(=O)[nH]1 [Urd, uridine]
- reduction of liver lipid accumulation (UPP-1-TG mice [2]): ~15 fold
- 11660/11445 value of liver lipid droplets (lipid-chain unsaturation) (UPP-1-TG mice [3]): 0.3
- reduction in intracellular lipid droplet accumulation [4]: 10 fold

SMILES: O=S(=O)(c1ccccc1)N(CC(F)(F)F)c1ccc(C(O)(C(F)(F)F)C(F)(F)F)cc1 [T0901317]
- effect on UPP-2 expression in mouse liver (UPP-2): potent induction
